Experiment [1] deals with G9a, PHF20 and ERα protein levels. Put plainly: Western blot of total G9a, PHF20 and ERα in whole cell extract, HEK-293T cells. It is filed as cell-based, human. Conditions: 24 h; WCE western blot. How it is done: (§1) Human MCF-7, T-47D, U2OS and HEK293T cells (ATCC) were cultured in DMEM (Cellgro) supplemented with 10% fetal bovine serum (FBS, Sigma). For G9a inhibitor treatment, BIX-01294 (Sigma) was added to the medium, at the indicated concentrations, 24 h before the cells were collected. For shRNA knockdown, 293T cells were co-transfected with pMD2.G and pPAX2 (Addgene) together with pLKO-shRNA constructs or a non-targeting pLKO-shRNA (pLKO-shCtrl). Viral supernatants were harvested after 48 h. For infections, MCF-7 or T-47D cells were incubated with viral supernatants in the presence of 8 μg ml^−1 polybrene. After 48 h, puromycin (2 μg ml^−1) was added to the DMEM. Cells were grown, with selection for 5–7 days to select for stable knockdown cells before oestrogen treatment. For oestrogen treatment, cells were starved in phenol red-free DMEM supplemented with 10% charcoal-stripped FBS (Sigma) for 3–4 days, and 10 nM 17β-estradiol (Sigma) or ethanol (vehicle) were added to the medium (3 or 6 h for gene expression studies, and 15 and 45 min for ChIP experiments) before the cells were collected.
For orientation: Immunoblotting shows a protein as a band on a membrane.

Another experiment relates to G9a. Conditions: cited from earlier work. The text has this:
Next, we sought to determine whether the methyltransferase activity of G9a is required for its co-activation of endogenous ERα target genes. […] (Supplementary Fig. 2a,b). Importantly, under these conditions, although a res ...

Another experiment has as its system MAGE-A2. The experiment in a line: qPCR of MAGE-A2, a G9a-repressed gene, in MCF-7 cells. It is filed as cell-based, human. Conditions: 4 and 8 μM for 24 h, mean +/- S.E.M. of two experiments. How it is done: as §1, with “For oestrogen treatment, cells were starved in phenol red-free DMEM supplemented with 10% charcoal-stripped FBS (Sigma) for 3–4 days, and 10 nM 17β-estradiol (Sigma) or ethanol (vehicle) were added to the medium (3 or 6 h for gene expression studies, and 15 and 45 min for ChIP experiments) before the cells were collected.” left out
Reverse transcription and real-time PCR were performed as described previously. mRNA was prepared using the RNeasy Plus kit (Qiagen) and reverse transcribed using the First Strand Synthesis kit (Invitrogen). Quantitative real-time RT–PCR (qPCR) was performed on an ABI 7500-FAST Sequence Detection System using the Power SYBR Green PCR Master Mix (Applied Biosystems). Gene expression was calculated following normalization to GAPDH levels using the comparative Ct (cycle threshold) method and is shown as ‘Fold' relative to the expression of each gene in the control cells without E2 treatment that was arbitrarily set as ‘1'. […]
Background: In qPCR the cycle at which signal appears reflects the starting amount.

Experiment [2] concerns MCF-7 cells. The experiment in a line: MCF-7 cell proliferation (cell counting). Conditions: different doses; cell numbers counted for 6 days. It is filed as cell-based, human. The protocol: Human MCF-7, T-47D, U2OS and HEK293T cells (ATCC) were cultured in DMEM (Cellgro) supplemented with 10% fetal bovine serum (FBS, Sigma). For G9a inhibitor treatment, BIX-01294 (Sigma) was added to the medium, at the indicated concentrations, 24 h before the cells were collected. For shRNA knockdown, 293T cells were co-transfected with pMD2.G and pPAX2 (Addgene) together with pLKO-shRNA constructs or a non-targeting pLKO-shRNA (pLKO-shCtrl). Viral supernatants were harvested after 48 h. For infections, MCF-7 or T-47D cells were incubated with viral supernatants in the presence of 8 μg ml^−1 polybrene. After 48 h, puromycin (2 μg ml^−1) was added to the DMEM. […]
(a, b) Growth curves of control (shCtrl) and G9a knockdown (shG9a) MCF-7 cells. Cells from 6 wells were counted in triplicates every two days, for 8 days (a) or 6 days (b) after seeding.
(c, d) G9a is required for cell growth in colony formation assays. […] Colonies arising from control and G9 knockdown MCF-7 cells were counted two weeks after seeding (d)
(e) G9a depletion reduces the anchorage-independent growth of MCF-7 cells. […] After four weeks, colonies were counted. At least 5 fields of view were counted for each well.
(f) The catalytic activity of G9a is required for cell growth. MCF-7 cells treated with the indicated doses of BIX-01249 were counted 6 days after seeding. […]

Another experiment deals with PHF20–ERα interaction. The experiment in a line: Co-IP of ERα and PHF20 in HEK-293T cells. It is filed as cell-based, human. Conditions: 24 h before co-IP; Flag-ERα and Myc-PHF20 co-transfected HEK-293T. How it is done:
as §1
For immunoprecipitation (IP) experiments, each cell fraction was incubated with the anti-FLAG M2-conjugated agarose beads overnight at 4 °C. The beads were washed 3–6 times with cell lysis buffer, and the bound proteins were eluted in SDS buffer and analysed by western blot. […]

In experiment [3] the test system is MCF-7 cells. The experiment in a line: Colony formation assay, MCF-7. It is filed as cell-based, human. How it is done: MCF-7 cells treated with shRNAs or BIX-01294 were seeded in six-well plates (1,000 cells per well) and grown in DMEM plus 10% FBS at 37 °C for 10–14 days. For anchorage-independent cell growth assays, 4,000 MCF-7 cells were suspended in DMEM containing 0.4% agar and seeded into six-well plates pre-coated with a base layer of 0.6% agar and grown at 37 °C for 4 weeks. Cells were fixed, stained with 0.005% crystal violet blue and photographed. Colony numbers were counted using ImageJ software with size cutoff of 75 μm. Results were quantitated from three to six wells or three to five views of each well from three independent replicates.

The subject of a further experiment is endogenous G9a. Put plainly: Global histone H3K9me2 western blot (endogenous G9a activity) in MCF-7 cells. In kind it is cell-based, human. Particulars: 4 and 8 μM for 24 h. The protocol:
as §1

For experiment [4], the system named is ERα target genes (GREB1, PR, TFF1). The experiment in a line: qPCR of E2-induced ERα target gene expression in MCF-7 cells. In kind it is cell-based, human. How it is done:
as §1
Reverse transcription and real-time PCR were performed as described previously. mRNA was prepared using the RNeasy Plus kit (Qiagen) and reverse transcribed using the First Strand Synthesis kit (Invitrogen). Quantitative real-time RT–PCR (qPCR) was performed on an ABI 7500-FAST Sequence Detection System using the Power SYBR Green PCR Master Mix (Applied Biosystems). Gene expression was calculated following normalization to GAPDH levels using the comparative Ct (cycle threshold) method and is shown as ‘Fold' relative to the expression of each gene in the control cells without E2 treatment that was arbitrarily set as ‘1'. The primer sequences used for RT–PCR are listed in Supplementary Table 5.

The structures appear in SMILES notation. “Also recorded” adds a separate entry of the source.

For the compound `COc1cc2nc(N3CCCN(C)CC3)nc(NC3CCN(Cc4ccccc4)CC3)c2cc1OC` [BIX-01294], the “total levels of G9a, PHF20 and ERα” value in experiment [1] is listed as “not affected”. For the same compound, the G9a inhibition selectivity entry in the experiment on G9a was “selective G9a inhibitor”. Further, the “derepression of MAGE-A2” value in the experiment on MAGE-A2 is on record as “derepression of MAGE-A2; also recorded: induces the derepression”. Moreover, in the experiment with MCF-7 cells [2], the cell proliferation entry is “inhibited cell proliferation in a dose-dependent manner”. The “PHF20–ERα interaction” value in the experiment on PHF20–ERα interaction was “markedly diminished the PHF20–ERα interaction; also recorded: diminishes the interaction between ERα and PHF20 in cells”. Further, the colony formation entry with MCF-7 cells [3] (0.5 or 1 μM, 10–14 days, crystal violet) is listed as “greatly suppressed colony formation”. Also, the cell survival result in the experiment with MCF-7 cells [3] (indicated doses, MCF-7 colonies, at least three experiments) is reported as “inhibits cell survival”. Also, the “enzymatic activity of endogenous G9a (global H3K9 methylation levels)” value in the experiment with endogenous G9a is recorded as “effectively inhibited; also recorded: reduces global H3K9me2 levels”. The “E2-induced activation of GREB1 and PR under BIX-01294” value in experiment [4] (4 or 8 μM BIX-01294, 10 nM E2 for 3 h, qPCR, two experiments) is “clearly impaired by BIX-01294 in a dose-dependent manner; also recorded: inhibits E2-induced activation of GREB1 and PR”. Further, in experiment [4] (BIX-01294-treated MCF-7 cells, E2), the “residual E2-dependent response under BIX-01294” value is on record as “a residual E2 response was sufficient to maintain GREB1 gene expression; also recorded: there was still an E2-dependent response”. In addition, the “E2-dependent gene activation under BIX-01294” value in experiment [4] (MCF-7, BIX-01294-treated (discussion)) is given as “greatly reduced E2-dependent gene activation”.

Values taken from publication PMC4792926, “G9a-mediated methylation of ERα links the PHF20/MOF histone acetyltransferase complex to hormonal gene expression” (Nature Communications, 2016).
